What was measured:
[1] = Solubility tests of prior art betaines in concentrated glyphosate salt solutions; type: physicochemical
From the text: WO2000038523 (Huntsman, U.S. Pat. No. 6,500,784, U.S. Pat. No. 6,653,257, EP1139761) discloses an amphoteric surfactant with the structure RCONH(CH2)nN^+R^12CH2COO^− where R^1 is alkyl or hydroxyl alkyl group with C1 to C4 and n=2-4, and discloses a betaine with the structure R R^12N^+CH2COO^− where R^1 is alkyl or hydroxyl alkyl group with C1 to C4. The amphoterics disclosed there mainly functioned as a co-surfactant to solubilize a ether carboxylate in to concentrated glyphosate systems. In the context of the document, there was no mention of bioefficacy of betaines or other amphoteric surfactants by themselves. […] However, without proper testing of individual surfactant, it is not possible to determine whether the effect seen in the mixture of three surfactants comes from the claimed surfactant or the other two surfactants. Moreover, no actual bioefficacy data and especially no data are provided on the degree of “overall kill” provided in the absence of surfactants and in the presence of surfactants; without such data it is not possible to determine whether or not the claimed alkyl amido betaine was effective in enhancing herbicidal activity of glyphosate under the conditions of the test reported. This patent requires Na ion to be <0.035% for the glyphosate formulation to be stable. Moreover, it used only IPA-glyphosate as examples. […]

[2] = tested on: morning glory and wheat; experiment: Example 3 green house trial, % Control of glyphosate formulations; type: in vivo; conditions: 930, 465 and 233 g ae/ha; 28 DAT; compared with glyphosate formulation without surfactant
From the text: FIG. 9 is a bar graph illustrating the % control results of applying glyphosate formulation containing oleylamphopolycarboxy glycinate, glyphosate formulation containing tallowamine-10EO, and glyphosate alone, each at 233 g ae/ha, 465 g ae/ha, and 930 g ae/ha to morning glory at 28 days after treatment.
FIG. 10 is a bar graph illustrating the % control results of applying glyphosate formulation containing oleylamphopolycarboxy glycinate, glyphosate formulation containing tallowamine-10EO, and glyphosate alone, each at 233 g ae/ha, 465 g ae/ha, and 930 g ae/ha to wheat at 28 days after treatment.
Glyphosate formulation containing oleylamphopolycarboxy glycinate (Na salt) was compared in a green house trial with glyphosate formulation containing tallowamine-10EO (as positive control) and glyphosate alone in terms of % Control. Three glyphosate rates were used, 930 g ae/ha, 465 gae/ha, and 233 g ae/ha.
The results are plotted in FIGS. 9-10.

[3] = tested on: morning glory (IPOHE, a broad leaf week); experiment: Green house % Control of glyphosate samples with various surfactants (Example 1), morning glory; type: in vivo; conditions: MG
From the text: (§1) Four glyphosate samples with various surfactants were sprayed on morning glory (IPOHE, a broad leaf week) and wheat (TRIAV, a narrow leaf grass) in a green house setting. The surfactants are designated in Table 1.
(§2) The glyphosate rates of the spray solutions were 186, 372, and 743 g ae/ha (gram acid equivalent per hectare). […] Higher ratio means lower surfactant concentration. A ratio of 6.7 means the sample, at the same glyphosate concentration, has 2.2 times less surfactant than a sample with a ratio of 3.
(§3) Sample D served as a negative control, since it contained only glyphosate without added surfactant. Sample C served as a positive control since it is well known that tallowamine-15EO is an excellent surfactant to enhance glyphosate efficacy.
(§4) % Control ratings were conducted by an experienced person at 7, 14, 21, and 29 days after treatment (DAT). Digital pictures were also taken at the time of rating. Each % Control value was an average of 4 replicas.

[4] = tested on: wheat (TRIAV, a narrow leaf grass); experiment: Green house % Control of glyphosate samples with various surfactants (Example 1), wheat; type: in vivo; conditions: WT
From the text: as §1, §2, §3, §4

[5] = tested on: morning glory (IPOHE) and winter wheat (TRZAW); experiment: Example 2 green house trial of concentrated glyphosate samples, % control at 28 DAT; type: in vivo; conditions: glyphosate:surfactant 13:1, 489 and 978 g ae/ha, vs glyphosate alone
Experimental: The concentrated glyphosate samples were diluted to two glyphosate rates and sprayed in a green house so that the final glyphosate rates of the spray solutions were 489 and 978 g ae/H. Three samples at two rates equals six treatments that were sprayed on each of two species, morning glory (IPOHE, a broad leaf week) and winter wheat (TRZAW, a narrow leaf grass). Two rates were employed, 978 g ae/H, and 16-30 at 489 g ae/ha.
Higher ratio means lower surfactant concentration. A ratio of 13:1 means the sample, at the same glyphosate concentration, has 4.3 times less surfactant than a sample with a ratio of 3:1.
Sample A (glyphosate with added tallowamine-15EO) served as a positive control. Sample B containing only glyphosate without added surfactant served as a negative control.
FIGS. 7-8 illustrates the % control results at 28 DAT.

[6] = tested on: wheat; experiment: Example 5 trial of glyphosate formulations on wheat; type: in vivo; conditions: rate of 168 g ae/ha; glyphosate to surfactant ratio 3:1; 21DAT
From the text: FIG. 13 is a photo of wheat taken at 21 days after treatment with glyphosate alone, glyphosate with tallowamine-15EO, glyphosate with cocoamine-6EO betaine, and no glyphosate.
Cocoamine-6EO betaine was compared in the same trial with tallowamine-15EO as the positive control and the surfactant-free sample as negative control in glyphosate formulations. Glyphosate to surfactant ratio was 3:1.
This can be seen from the picture at FIG. 13, taken at 21DAT.

[7] = tested on: morning glory (IPOHE) and wheat (TRIAV); experiment: Example 1 green house trial, overall statement on adjuvancy; type: in vivo; conditions: glyphosate:surfactant ratio 6.7
From the text: as §1, §2, §4

## coco dimethylamidopropyl betaine
[1]; in a composition of 360 g ae/l potassium glyphosate
  amount of surfactant that could be dissolved: < 80 g/L

## oleylamphopolycarboxy glycinate (Na salt)
[2]
  enhancement of glyphosate efficacy: enhanced glyphosate efficacy

## CC(C)N.O=C(O)CNCP(=O)(O)O [Sample D, Glyphosate (isopropylamine salt)]
[3]; Glyph rate 186 g ae/h, average of 4 replicas
  % Control 7DAT: 55%
[3]; Glyph rate 186 g ae/h
  % Control 14 DAT: 68%
  % Control 21DAT: 79%
  % Control 29DAT: 68%
[3]; Glyph rate 372 g ae/h
  % Control 7DAT: 86%
  % Control 14 DAT: 89%
  % Control 21DAT: 95%
  % Control 29DAT: 93%
[3]; Glyph rate 743 g ae/h
  % Control 7DAT: 83%
  % Control 14 DAT: 90%
  % Control 21DAT: 94%
  % Control 29DAT: 91%
[4]; Glyph rate 186 g ae/h
  % Control 7DAT: 28%
  % Control 14 DAT: 60%
  % Control 21DAT: 80%
  % Control 29DAT: 58%
[4]; Glyph rate 372 g ae/h
  % Control 7DAT: 58%
  % Control 14 DAT: 85%
  % Control 21DAT: 89%
  % Control 29DAT: 89%
[4]; Glyph rate 743 g ae/h
  % Control 7DAT: 84%
  % Control 14 DAT: 94%
  % Control 21DAT: 98%
  % Control 29DAT: 98%

## tallow diamine trimethyl di-betaine
[5]
  enhancement of glyphosate bioefficacy: enhanced glyphosate bioefficacy even at very low rate

## O=C(O)CNCP(=O)(O)O [glyphosate sample without surfactant, glyphosate]
[6]
  control to wheat: did not give much control

## tallowamine-15EO
[6]
  control to wheat: excellent control

## CCCCCCCCCCCCCCCCCC(=O)NCCC[N+](C)(C)CC(=O)[O-] [stearyl dimethylamidopropyl betaine]
[1]; in a composition of 51.3% potassium glyphosate (aqueous)
  amount of surfactant that could be dissolved: < 1.8%

## Cocodiamine trimethyl betaines
[7]
  speed of glyphosate activity: speeded up glyphosate activity
[7]; 186, 372, 743 g ae/ha
  adjuvancy for glyphosate: good adjuvancy for glyphosate even at very low use rate

## Ethoxylated cocoamine (6EO) betaine [cocoamine-6EO betaine]
[6]
  control to wheat: excellent control

From patent US10123533B2, “Nitrogen containing surfactants for agricultural use” (AKZO NOBEL CHEMICALS INTERNATIONAL B.V., priority 2009, dated 2018)
